Laboratory results published in paper PMC8133002, “Disruption of microtubule function in cultured human cells by a cytotoxic ruthenium(II) polypyridyl complex” (Chemical Science, 2019).
pIC50: −log10 of the molar value. Like-named read-outs stand apart in the source and are kept apart here. Blank lines part the entries; values can stand above or below the compound they belong to.

Tests used:
porcine brain tubulin = assay: Isothermal titration calorimetry, free (unpolymerized) tubulin at 4 °C; format: binding; conditions: association constant, ITC
Description: (§1) ITC experiments were performed using a Microcal VP-ITC (Malvern) instrument. For polymerized porcine brain tubulin the calorimeter was set at 37 °C. For depolymerized porcine brain tubulin the calorimeter was set at 4 °C. Tubulin concentration was kept below 3 mg mL^−1 to ensure that minimal microtubule formation before any polymerization assays were performed in preparation for ITC experiments. Reverse titrations were used in all ITC experiments due to the low solubility of RPC2 in aqueous solutions. A typical ITC experiment involved fourteen 20 μL injections of tubulin (∼30 μM heterodimers, or 2 mg mL^−1) into a 1.45 mL cell of ligand solution. The ITC thermograms were corrected for titrate and titrant dilution effects by performing the appropriate blank experiments and correcting the observed heats by subtracting the heats of dilution. Corrected ITC titrations were fit with a nonlinear regression algorithm using CHASM, an ITC data analysis program developed in the Lewis laboratory to determine the thermodynamic parameters, including the association constant (K) and changes in free energy (ΔG), enthalpy (ΔH), and entropy (−TΔS).
Isothermal titration calorimetry (ITC) was used to measure the binding thermodynamics of RPC2 with tubulin and MTs. […]

[1] = target: T1, preformed microtubules (polymerized porcine brain tubulin) (Sus scrofa, UniProt P02550+P02554); assay: Isothermal titration calorimetry, preformed microtubules at 37 °C; format: binding; conditions: ITC
T1 construct: For depolymerized porcine brain tubulin the calorimeter was set at 4 °C; purchased Cytoskeleton Inc., (Denver. CO); host or cells: porcine brain (tissue-purified)
T1 sequence (P02550 whole entry): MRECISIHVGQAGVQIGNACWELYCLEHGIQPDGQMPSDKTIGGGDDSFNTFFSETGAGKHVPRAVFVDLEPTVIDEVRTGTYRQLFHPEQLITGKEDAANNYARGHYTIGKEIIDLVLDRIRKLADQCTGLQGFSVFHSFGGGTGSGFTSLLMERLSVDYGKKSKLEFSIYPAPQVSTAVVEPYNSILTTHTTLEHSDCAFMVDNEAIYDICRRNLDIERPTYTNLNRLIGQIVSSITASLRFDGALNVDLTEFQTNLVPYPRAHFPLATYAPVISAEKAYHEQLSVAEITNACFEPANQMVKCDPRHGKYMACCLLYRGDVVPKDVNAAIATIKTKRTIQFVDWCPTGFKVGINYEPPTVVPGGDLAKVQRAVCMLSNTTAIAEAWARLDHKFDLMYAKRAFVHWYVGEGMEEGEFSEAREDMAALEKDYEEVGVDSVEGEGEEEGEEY
T1 sequence (P02554 whole entry): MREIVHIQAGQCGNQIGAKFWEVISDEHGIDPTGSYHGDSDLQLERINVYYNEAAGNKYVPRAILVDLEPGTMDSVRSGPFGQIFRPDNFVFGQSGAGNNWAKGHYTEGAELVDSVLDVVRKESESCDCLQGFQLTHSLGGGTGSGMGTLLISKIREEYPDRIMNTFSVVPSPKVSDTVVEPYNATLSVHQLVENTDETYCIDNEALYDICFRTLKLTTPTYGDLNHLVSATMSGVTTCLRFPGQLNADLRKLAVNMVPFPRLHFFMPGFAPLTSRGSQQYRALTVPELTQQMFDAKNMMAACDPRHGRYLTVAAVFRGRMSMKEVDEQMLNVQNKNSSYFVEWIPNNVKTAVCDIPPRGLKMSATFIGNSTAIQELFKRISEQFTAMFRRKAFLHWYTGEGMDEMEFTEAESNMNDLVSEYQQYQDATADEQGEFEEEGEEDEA
Description: as §1
Isothermal titration calorimetry (ITC) was used to measure the binding thermodynamics of RPC2 with tubulin and MTs. Reverse titrations (protein introduced into solutions with a fixed ligand concentration) were done as the poor solubility of RPC2 limited its concentration range. […] Experiments were either performed starting at 4 °C or 37 °C to obtain a population of tubulin in the free, unpolymerized state (4 °C) or polymerized state as MTs (37 °C), as these two structures present a different collection of binding sites to the ligand.

MTs = system: MTs; set-up: method as in PMID 15057285, PMID 29523799; conditions: competitive binding titrations; cited from earlier work
H358 [2] = assay: Cytotoxicity IC50 against H358 cells; format: cell-based; conditions: Homo sapiens, NCI-H358
MCF7 = assay: Cytotoxicity IC50 against MCF7 cells; format: cell-based; conditions: Homo sapiens
[3] = system: microtubules formed from porcine brain tubulin; assay: Electron microscopy of polymerized tubulin; format: biochemical; conditions: 10 μM
Description: Aliquots of polymerized tubulin were placed on 300-mesh carbon-coated, Formvar-treated copper grids and immediately stained with 5–10 successively applied drops of 1% (w/v) uranyl acetate. Excess stain was wicked from the grids with torn filter paper. The grids were examined in a Hitachi H-9500 High-resolution Transmission Electron Microscope.

MCF10 = conditions: cited from earlier work
HUVEC = conditions: cited from earlier work
[4] = system: free tubulin in H358 cells; assay: Western blot of free tubulin in cytosol of H358 cells; format: cell-based, human; conditions: PTX 0.1 μM or RPC2 1.7 μM, 12 h
Description: […] The confluent 60 mm dishes of cells were washed 3 times with 37 °C PBS, then lysed in microtubule stabilization buffer (Tris–HCl pH 6.8, 20 mM, NaCl 140 mM, MgCl2 1 mM, NP40 0.5%, EGTA 2 mM, 10 μM of Taxol) and protease inhibitors (100× Protease Inhibitor Cocktail (PIC) and 100× phenylmethane sulfonyl fluoride (PMSF)). Then, the cells were scraped, mixed and quickly transfer to microtubes. These samples were then spun at 10 000 rpm for 20 minutes, the supernatants containing free tubulin were collected and a bicinchoninic acid (BCA) protein assay was performed to check the protein quantity. Equal amounts of protein sample were prepared in Laemmli sample buffer and were boiled for 5 min at 95 °C. Proteins were resolved on a 12% polyacrylamide gel. The proteins were transferred to a nitrocellulose membrane for 1.5 h at 100 V. The nitrocellulose membrane was stained for 1 min with Ponceau Red to verify the efficiency of the transfer. Then, the membrane was blocked in 5% skim milk for 1 h at room temperature and incubated with primary alpha tubulin monoclonal antibody in 5% BSA overnight at 4 °C. The membrane was washed 3 times with TBST buffer before being probed with secondary antibodies conjugated to HRP, then the membrane was incubated for 1 h at room temperature before it was washed 3 times again with TBST buffer. […]

[5] = system: MCF7 and MCF10a cells expressing GFP-EB3; assay: Spinning disk confocal imaging of GFP-EB3 comets in live cells; format: cell-based, human; conditions: IC50 dose
Description: MCF7 cells were cultured in phenol-red DMEM media (HyClone™, GE healthcare) supplemented with 10% FBS and penicillin/streptomycin at 37 °C in 5% CO2. MCF10A cells were cultured in low-calcium phenol-red DMEM/F12 (HyClone™, GE healthcare) supplemented with final concentration of 5% horse serum, 20 ng mL^−1 EGF, […] hydrocortisone, 100 ng mL^−1 Cholera toxin, 10 μg mL^−1 insulin, and 1% pen-strep. For live imaging, 500 000 cells per mL of both MCF7 and MCF10A cells were transfected with the cDNA (EGFP-EB3), and then cultured on 10 μg mL^−1 fibronectin coated 35 mm glass-bottom dishes (Cellvis, cat#: D35-20-1.5-N). Transfection of EGFP-EB3 was performed using a Lonza Nucleofector Device with Ingenio electroporation kit (Cat# MIR 50112, Mirus). Cells were treated with RPC2 18–24 hours post-transfection to allow time for cDNA expression. To minimize photobleaching, phenol-free DMEM was supplemented with 10% FBS and 25 mM HEPES, pH = 7.2 replaced the original media and was administered before RPC2 treatment. Time-lapse imaging was obtained before, 30 min, 1 h, 2 h, and 3 h after RPC2 treatment for both MCF7 and MCF10A. Images were obtained on a Zeiss Axiovert (Jena, Germany) microscope with a Zeiss alpha Plan-Fluar 100×, 1.45 NA oil objective and a spinning disk confocal scan head (Yokogawa CSU-X1, Tokyo, Japan). […]

H358 [6] = conditions: cited from earlier work
mouse fibroblast cells [7] = system: mouse fibroblast cells; set-up: method as in PMID 6103535; conditions: PTX 0.25 μM, cited from earlier work
mouse fibroblast cells [8] = system: mouse fibroblast cells; set-up: method as in PMID 20059301; conditions: mouse fibroblast cell line; cited from earlier work
[9] = rats, intraperitoneal injection; cited from earlier work
[10] = mice, intraperitoneal injection; cited from earlier work
MCF10 and MCF7 cells = system: MCF10 and MCF7 cells; set-up: method as in PMID 28605571; conditions: cited from earlier work

- ΔG ([1]; MT, 37 °C): -38.5 ± 3.8 kJ/mol
- ΔH ([1]; MT, 37 °C): -140 ± 27.2 kJ/mol
- Kd ([1]; preformed MTs, read-out: associative binding constant K to preformed microtubules (converted)): 0.182 µM
- K ([1]; association constant, MT, 37 °C): 5.5e+06 M⁻¹
Compound: CC(=O)O[C@@]12CO[C@@H]1C[C@H](O)[C@@]1(C)C(=O)[C@H](O)C3=C(C)[C@@H](OC(=O)[C@H](O)[C@@H](NC(=O)OC(C)(C)C)c4ccccc4)C[C@@](O)([C@@H](OC(=O)c4ccccc4)[C@H]21)C3(C)C [DTX, docetaxel]
- K (porcine brain tubulin): 8.1e+06 M⁻¹
- association constant with MTs (MTs): 3.09e+07 M⁻¹

Compound: COC(=O)Nc1nc2ccc(C(=O)c3cccs3)cc2[nH]1 [NCZ, nocodazole]
- pIC50 (H358 [2]): 6.00
- pIC50 (MCF7): 5.49
- Appearance of MTs in TEM images [3]: only small MT fragments or tubulin dimers are apparent
- pIC50 (MCF10): 6.32
- pIC50 (HUVEC): 6.70

Compound: CC(=O)O[C@H]1C(=O)[C@@]2(C)[C@H]([C@H](OC(=O)c3ccccc3)[C@]3(O)C[C@H](OC(=O)[C@H](O)[C@@H](NC(=O)c4ccccc4)c4ccccc4)C(C)=C1C3(C)C)[C@]1(OC(C)=O)CO[C@@H]1C[C@@H]2O [PTX, paclitaxel]
- Amount of free tubulin in the cytosol (western blot) [4]: substantially reduce the amount of free tubulin
- time point at which changes in MT comet motion were apparent [5]: 30 min
- pIC50 (H358 [6]): 7.00
- pIC50 (MCF10): 6.70
- pIC50 (HUVEC): 9.09
- association constant with MTs (MTs): 1.07e+07 M⁻¹
- population in G2/M (mouse fibroblast cells [7]; after 9 h): ~50%
- population in G2/M (mouse fibroblast cells [7]; by 27 h): ~100%
- pIC50 (mouse fibroblast cells [8]): 6.07

Compound: [106Ru+2].[O-][Cl+3]([O-])([O-])[O-].[O-][Cl+3]([O-])([O-])[O-].c1cnc2c(c1)ccc1cccnc12.c1cnc2c(c1)ccc1cccnc12.c1cnc2c(c1)ccc1cccnc12 [[^106Ru(phen)3][ClO4]2]
- time to excretion of the intact cation in the urine [9]: about 12 h
- time to excretion of the intact cation in the urine [10]: about 12 h

Compound: [(DIP)2Ru(tatpp)Ru(DIP)2]^2+
- selectivity index (SI = IC50 MCF10/IC50 MCF7) (MCF10 and MCF7 cells): 11

Compound: [(DIP)2Ru(tatpp)]^2+
- selectivity index (SI = IC50 MCF10/IC50 MCF7) (MCF10 and MCF7 cells): 71
